Results published in US20140214336A1, “SYSTEMS AND METHODS FOR NETWORK-BASED BIOLOGICAL ACTIVITY ASSESSMENT” (PHILIP MORRIS PRODUCTS S.A., priority 2011, published 2014).

Tests used:
[1] = test system: Normal human bronchial epithelial (NHBE) cells; assay: Cell cycle arrest and S-phase re-entry in NHBE cell culture (fluorescent S-phase labeling / FACS); format: cell-based
Method: (§1) The systems and methods described herein have been tested using a well-understood cell culture experiment. […] The treated cells were then allowed to re-enter the cell cycle by removal of the CDKI from the media and washing. Re-entry of the cell cycle was experimentally confirmed by labeling the cells fluorescently in S-phase at 2, 4, 6 and 8 hours after the CDKI was removed and the cells were washed. The gene transcription profiles of cells that were sampled 2, 4, 6, and 8 hours after the removal of the CDKI, were obtained. Profiles of cells that were continuously exposed to CDKI in media were also obtained. To identify biological processes and mechanisms that were differentially activated when CDKI was removed, network perturbation amplitude scores were calculated using gene transcription profiles of the washed cells obtained at various time point. For the computation of a NPA score for the perturbation associated with the removal of CDKI, a cell cycle subnetwork that comprises 127 nodes and 240 edges, was used. It is a subnetwork of the cell proliferation network model published in […] et al. (2011, “A computable cellular stress network model for non-diseased pulmonary and cardiovascular tissue” BMC Syst Biol. Oct 19; 5:168, which is incorporated herein by reference in its entirety). […]

[2] = test system: cell cycle subnetwork in NHBE cells; assay: Network perturbation amplitude (NPA) score on the cell cycle subnetwork, from gene transcription profiles of NHBE cells; format: cell-based, human; conditions: from 2-hour to 8-hour time point after removal of CDKI, versus cells continuously exposed to CDKI; subnetwork of 127 nodes and 240 edges
Method: as §1

CC(=O)c1c(C)c2cnc(Nc3ccc(N4CCNCC4)cn3)nc2n(C2CCCC2)c1=O [PD-0332991]
number of cells in S-phase (FACS analysis, FIG. 17) ([1]; 2, 4, 6 and 8 hours after the CDKI was removed and the cells were washed): increase
effect on cell cycle ([1]; NHBE cells exposed to the CDKI in media): arrests the cells in G1
NPA scores (FIG. 18) [2]: increase
